Patent publication US8168675B2, “Compositions and methods for treating neurodegenerative diseases” (Marin Bio Co., Ltd., priority 2008, dated 2012)

Key:
Type in all cases: in vivo
C57BL/6 (B6) mice [1] = assay: Spiral ganglion cell counting (SGC density); conditions: dietary supplementation from 4 to 15 months of age, *P<0.05, n=5
Experimental: (§1) Details on the methods used to house and feed male inbred C57BL/6 (B6) mice have been described (Pugh et al., Cancer Res. 59:1642 [1999]). Briefly, Mice were divided into five groups: control, α-lipoic acid (ALA), CLA, coenzyme Q10 (CQ), and phenylalanine (PA). The compound treatment groups were fed the same caloric intake as controls, but were supplemented with ALA (150 mg/kg), CLA (5000 mg/kg), CQ (50 mg/kg), and PA (250 mg/kg) from 4 months of age until 15 months of age (FIG. 1).
SGCs were identified by the presence of a nucleus. The SGC density was calculated as the number of SGCs per 1 mm^2. Five sections of the unilateral apical turn were evaluated in one cochlea per mouse. Data were analyzed using the two-tailed standard t-test. All data were reported as mean±S.E.M.

C57BL/6 (B6) mice [2] = assay: ABR hearing threshold measurement in aged mice (presbycusis model); conditions: dietary supplementation from 4 to 15 months of age, *P<0.05, n=5 vs Control
Experimental: as §1
Detailed protocols for ABR measurement have been described (Yamasoba et al., Neurosci Lett. 395:18 [2005]). […] Mice were anesthetized with a mixture of xylazine hydrochloride (10 mg/kg, i.m.) and ketamine hydrochloride (40 mg/kg, i.m.). Five to seven mice per group were used for this study, and the same mice were used for the following histopathological analyses. Data were examined using the two-tailed standard t-test and were tested for statistical significance using a One Way ANOVA test (GraphPad Prisim 5.0, San Diego, Calif.). All data were reported as mean±S.E.M.

C57BL/6 (B6) mice [3] = assay: Cochlear histopathology (hair cells and SGCs); conditions: dietary supplementation from 4 to 15 months of age, HE-stained cochlear sections, Control showed severe loss
Experimental: as §1
Detailed protocols for tissue processing have been described (Someya et al., [2007], supra). Briefly, 4% paraformaldehyde-fixed and paraffin-embedded specimens were sliced into 4 μm sections, mounted on silane-coated slides, stained with Haematoxylin and Eosin (HE), and observed under a light microscope (Leica Microsystems, Bannockburn, Ill.). The Rosenthal's canal was divided into three regions: apical, middle and basal (Keithley et al., [2004], supra) and the three regions were used for evaluation of cochlear histopathology. Five mice were used for each group that were the same mice as those used in the ABR tests. Five modiolar sections obtained in every fifth section from one unilateral cochlea were evaluated per mouse. The same animals were used for spiral ganglion cell counting.

Row | Compound | mean spiral ganglion cell density vs Control mice (C57BL/6 (B6) mice [1]) | hearing by ABR thresholds at 8 and 32 kHz (C57BL/6 (B6) mice [2]; 8 and 32 kHz) | loss of hair cells and SGCs in the cochleae (C57BL/6 (B6) mice [3]) | hearing by ABR thresholds at 32 kHz (C57BL/6 (B6) mice [2])
1 | COC1=C(OC)C(=O)C(C/C=C(\C)CC/C=C(\C)CC/C=C(\C)CC/C=C(\C)CC/C=C(\C)CC/C=C(\C)CC/C=C(\C)CC/C=C(\C)CC/C=C(\C)CCC=C(C)C)=C(C)C1=O [CQ, coenzyme Q10] | significantly higher | normal hearing | no or only a few loss | –
2 | N[C@@H](Cc1ccccc1)C(=O)O [PA, phenylalanine] | significantly higher | – | no or only a few loss | normal hearing
3 | conjugated linoleic acid [CLA] | – | – | – | normal hearing
4 | O=C(O)CCCCC1CCSS1 (stereo not drawn) [ALA, α-lipoic acid] | significantly higher | – | no or only a few loss | normal hearing
